Experiments:
[1] = Selectivity index ratio of CC50 for cytotoxicity against human MRC5 cells to IC50 for antibacterial activity against Acinetobacter baumannii assessed as inhibition of bacterial growth; format: toxicity, cell-based; conditions: read-out: Ratio CC50/IC50
[2] = tested on: Mycobacterium tuberculosis; assay: Antitubercular activity against Mycobacterium tuberculosis H37Ra assessed as inhibition of bacterial growth; format: functional, organism-based
[3] = Selectivity index ratio of CC50 for cytotoxicity against human MRC5 cells to IC50 for antiplasmodial activity against asexual blood stage Plasmodium falciparum K1 assessed as inhibition of parasitic growth; format: toxicity, cell-based; conditions: read-out: Ratio CC50/IC50
Acinetobacter baumannii = assay: Antibacterial activity against Acinetobacter baumannii assessed as inhibition of bacterial growth; format: functional, organism-based
Plasmodium falciparum = assay: Antiplasmodial activity against asexual blood stage Plasmodium falciparum K1 assessed as inhibition of parasitic growth; format: functional, organism-based
[4] = Cytotoxicity against human MRC5 cells assessed as reduction in cell viability; format: toxicity, cell-based

SMILES | selectivity ratio [1] | IC50 [2] [µM] | selectivity ratio [3] | IC50 (Acinetobacter baumannii) [µM] | IC50 (Plasmodium falciparum) [µM] | CC50 [4] [µM]
CN(O)C(=O)CCCP(=O)(OCOC(=O)C(C)(C)C)OCOC(=O)C(C)(C)C | > 4.3 | > 56.1 | > 59 | 12 | 0.86 | > 51
CN(O)C(=O)CCCP(=O)(OCOC(=O)c1ccccc1)OCOC(=O)c1ccccc1 | 3.4 | > 64 | 234 | 8.2 | 0.12 | 28.1
CC(C)OC(=O)OCOP(=O)(CCCC(=O)N(C)O)OCOC(=O)OC(C)C | – | > 64 | > 461 | > 149 | 0.11 | > 50.7
CCON(C)C(=O)CCCP(=O)(OCOC(=O)c1coc(-c2ccccc2O)n1)OCOC(=O)c1coc(-c2ccccc2O)n1 | 1.6 | > 64 | 48 | 16 | 0.54 | 26
CN(O)C(=O)CCCP(=O)(OCOC(=O)OCCCc1ccccc1)OCOC(=O)OCCCc1ccccc1 | > 25 | > 64 | > 711 | 2.6 | 0.09 | > 64
CN(O)C(=O)CCCP(=O)(OCOC(=O)/C=C/c1ccccc1)OCOC(=O)/C=C/c1ccccc1 | 5.4 | > 64 | 606 | 5.6 | 0.05 | 30.3
CN(O)C(=O)CCCP(=O)(OCOC(=O)c1ccc(Cl)cc1)OCOC(=O)c1ccc(Cl)cc1 | 0.8 | > 64 | 223 | 39 | 0.14 | 31.2
CCON(C)C(=O)CCCP(=O)(OCOC(=O)c1cccc(O)c1O)OCOC(=O)c1cccc(O)c1O | – | > 64 | > 61 | > 121 | 1.05 | > 64
CCCCCCCC(=O)OCOP(=O)(CCCC(=O)N(C)O)OCOC(=O)CCCCCCC | 103 | > 64 | 1340 | 0.39 | 0.03 | 40.3
CN(O)C(=O)CCCP(=O)(OCOC(=O)c1cccc(Cl)c1)OCOC(=O)c1cccc(Cl)c1 | > 1.2 | > 64 | > 457 | 54 | 0.14 | > 64
CCON(C)C(=O)CCCP(=O)(OCOC(=O)c1ccccc1O)OCOC(=O)c1ccccc1O | – | > 64 | > 229 | > 129 | 0.28 | > 64
CCCCCCCC(=O)OCOP(=O)(OCOC(=O)CCCCCCC)C(CCC(=O)N(C)O)c1ccc(Cl)c(Cl)c1 (stereo not drawn) | 2 | > 64 | 51 | 11 | 0.44 | 22.5
CN(O)C(=O)CCCP(=O)(OCOC(=O)CCCCc1ccccc1)OCOC(=O)CCCCc1ccccc1 | > 27 | > 64 | > 1280 | 2.4 | 0.05 | > 64
CN(O)C(=O)CCC(c1ccc(Cl)c(Cl)c1)P(=O)(OCOC(=O)/C=C/c1ccccc1)OCOC(=O)/C=C/c1ccccc1 (stereo not drawn) | – | > 64 | 5.6 | > 97 | 4.42 | 24.6
CC(C)OC(=O)OCOP(=O)(OCOC(=O)OC(C)C)C(CCC(=O)N(C)O)c1ccc(Cl)c(Cl)c1 (stereo not drawn) | – | > 64 | 33 | > 111 | 0.23 | 7.58
CN(O)C(=O)CCCP(=O)(OCOC(=O)c1ccc2ccccc2c1)OCOC(=O)c1ccc2ccccc2c1 | 0.53 | > 64 | 109 | 51 | 0.25 | 27.2
CN(O)C(=O)CCC(c1ccc(Cl)c(Cl)c1)P(=O)(OCOC(=O)C(C)(C)C)OCOC(=O)C(C)(C)C (stereo not drawn) | – | > 64 | 15 | > 112 | 0.44 | 6.81
CCCCCCCCOC(=O)OCOP(=O)(CCCC(=O)N(C)O)OCOC(=O)OCCCCCCCC | 54 | > 64 | 539 | 0.7 | 0.07 | 37.7
COc1ccc(C(=O)OCOP(=O)(CCCC(=O)N(C)O)OCOC(=O)c2ccc(OC)cc2)cc1 | 3.3 | > 64 | 184 | 9.9 | 0.18 | 33.1
Cc1ccc(C(=O)OCOP(=O)(CCCC(=O)N(C)O)OCOC(=O)c2ccc(C)cc2)cc1 | > 5.8 | > 64 | > 112 | 11 | 0.57 | > 64
CCON(C)C(=O)CCCP(=O)(OCOC(=O)OCc1coc(-c2ccccc2O)n1)OCOC(=O)OCc1coc(-c2ccccc2O)n1 | 3.6 | > 64 | 61 | 7.1 | 0.42 | 25.5
CN(O)C(=O)CCCP(=O)(OCOC(=O)CCc1ccccc1)OCOC(=O)CCc1ccccc1 | > 3 | > 64 | > 711 | 21 | 0.09 | > 64
O=CN(O)CCCP(=O)(O)O [FOSMIDOMYCIN SODIUM] | – | > 64 | – | – | – | > 64

Reference: ChEMBL document CHEMBL5385862, “Acyloxymethyl and alkoxycarbonyloxymethyl prodrugs of a fosmidomycin surrogate as antimalarial and antibacterial agents” (Eur J Med Chem, 2023)
